In brackets after ≈: the same amount, converted by molar mass. Read-outs that look alike come from different tables or passages of the source. Where no end group is shown, it is not given here.
Experiments:
Cytotoxicity assay = format: cell-based; settings: human, HEK293 cells
Procedure: (§1) The antifungal activities were evaluated by determining the minimum inhibitory concentration (MIC) against C. albicans [ATCC 90028] and C. neoformans [ATCC 208821] that inhibits 99% fungal growth. Cytotoxicity and hemolytic activities were assessed against human embryonic kidney (HEK293) cells and human red blood cells, respectively. The antimicrobial screening was performed by The Community for Antimicrobial Drug Discovery (CO-ADD).[31] Cytotoxicity assays were performed on active compounds to assess their selectivity toward microbial cells. The protocol for the cytotoxicity assay is described in the Supporting Information.[28]

human red blood cells = assay: Hemolytic activity; format: cell-based; settings: for Hemolytic Toxicity (<32 mg/mL): yes/no below as printed
Procedure: as §1, with “(CO-ADD).[31]” for “(CO-ADD).[31] Cytotoxicity assays were performed on active compounds to assess their selectivity toward microbial cells. The protocol for the cytotoxicity assay is described in the Supporting Information.[28]”

[1] = test system: C. neoformans [ATCC 208821]; assay: microbe, parasite or virus in culture; format: cell-based, Cryptococcus neoformans; settings: for MIC: Cryptococcus neoformans
C. albicans [ATCC 90028] = assay: microbe, parasite or virus in culture; format: cell-based, Candida albicans; settings: for MIC: Candida albicans
HEK293 and RBC = assay: Toxicity (HEK293 and RBC), stated jointly; format: cell-based, human
Procedure: as §1

C. albicans MIC (C. albicans [ATCC 90028]; ATCC 90028, 3 h) [µg/mL]	Compound	CC50 (Cytotoxicity assay) [µg/mL]	Hemolytic Activity (human red blood cells; Table 2, human red blood cells) [µg/mL]	Hemolytic Toxicity (<32 mg/mL) (human red blood cells)	Hemolytic Activity (human red blood cells; Table 3, unit not given)	other results
–	RWRWRWRW-NH2 [RW4, (RW)4-NH2]	> 32	>32	No	–	–
32	RWRWRWRWRWRWRWRW-NH2 [RW8, (RW)8-NH2]	> 32	0.452	Yes	–	C. neoformans MIC ([1]; ATCC 208821, 3 h): 0.5 µg/mL
–	OC(Cn1cncn1)(Cn1cncn1)c1ccc(F)cc1F [Fluconazole, reference compound]	–	–	–	–	MIC ([1]; ATCC208821, BMD method, YNB, 384 NBS plates, average of ≥ 6 independent biological replicates, antifungal standard, read-out: MIC Cryptococcus neoformans H99 ATCC 208821): 8 µg/mL (≈ 26.1 µM); MIC (C. albicans [ATCC 90028]; ATCC90028, BMD method, YNB, 384 NBS plates, average of ≥ 6 independent biological replicates, antifungal standard, read-out: MIC Candida albicans ATCC 90028): 0.125 µg/mL (≈ 0.408 µM)
8	N=C(N)NCCC[C@H](NC(=O)[C@H](Cc1c[nH]c2ccccc12)NC(=O)[C@H](CCCNC(=N)N)NC(=O)[C@H](Cc1c[nH]c2ccccc12)NC(=O)[C@H](CCCNC(=N)N)NC(=O)[C@H](Cc1c[nH]c2ccccc12)NC(=O)[C@H](CCCNC(=N)N)NC(=O)[C@H](Cc1c[nH]c2ccccc12)NC(=O)[C@H](CCCNC(=N)N)NC(=O)[C@H](Cc1c[nH]c2ccccc12)NC(=O)[C@@H](N)CCCNC(=N)N)C(=O)N[C@@H](Cc1c[nH]c2ccccc12)C(N)=O [RW6, (RW)6-NH2]	> 32	≤0.25	Yes	–	–
–	RWRWPRWRWPRWRW-NH2 [RW6–2P]	> 32	–	–	>32	Toxicity in HEK293 or red blood cells (in words) (HEK293 and RBC): without any detectable toxicity
>32	RWRWRWRWPRWRWRWRW-NH2 [RW8P]	> 32	–	–	>32	C. neoformans MIC ([1]; ATCC 208821, 3 h): ≤0.25 µg/mL
>32	RWRWPRWRW-NH2 [RW4P]	> 32	–	–	>32	C. neoformans MIC ([1]; ATCC 208821, 3 h): ≤0.25 µg/mL
–	RWRWRWPRWRWRW-NH2 [RW6P]	> 32	–	–	>32	Toxicity in HEK293 or red blood cells (in words) (HEK293 and RBC): without observable toxicity
–	CC1(C)S[C@@H]2[C@H](NC(=O)[C@H](N)c3ccccc3)C(=O)N2[C@H]1C(=O)O [AMP, ampicillin, reference compound]	–	–	–	–	MIC ([1]; ATCC208821, antibiotic alone or 4.75 mg antibiotic mixed with 0.25 mg of peptide, read-out: C. neoformans MIC): > 32 µg/mL; MIC (C. albicans [ATCC 90028]; ATCC90028, antibiotic alone or 4.75 mg antibiotic mixed with 0.25 mg of peptide, read-out: C. albicans MIC): > 32 µg/mL
–	CN[C@H](CC(C)C)C(=O)N[C@H]1C(=O)N[C@@H](CC(N)=O)C(=O)N[C@H]2C(=O)N[C@H]3C(=O)N[C@H](C(=O)N[C@H](C(=O)O)c4cc(O)cc(O)c4-c4cc3ccc4O)[C@H](O)c3ccc(c(Cl)c3)Oc3cc2cc(c3O[C@@H]2O[C@H](CO)[C@@H](O)[C@H](O)[C@H]2O[C@H]2C[C@](C)(N)[C@H](O)[C@H](C)O2)Oc2ccc(cc2Cl)[C@H]1O [VAN, vancomycin, reference compound]	–	–	–	–	MIC ([1]; ATCC208821, read-out: C. neoformans MIC): > 32 µg/mL; MIC (C. albicans [ATCC 90028]; ATCC90028, read-out: C. albicans MIC): > 32 µg/mL
–	CC[C@H](C)[C@H](N)C(=O)N[C@@H](CC(C)C)C(=O)N1CCC[C@H]1C(=O)N[C@@H](Cc1c[nH]c2ccccc12)C(=O)N[C@@H](CCCCN)C(=O)N[C@@H](Cc1c[nH]c2ccccc12)C(=O)N1CCC[C@H]1C(=O)N[C@@H](Cc1c[nH]c2ccccc12)C(=O)N[C@@H](Cc1c[nH]c2ccccc12)C(=O)N1CCC[C@H]1C(=O)N[C@@H](Cc1c[nH]c2ccccc12)C(=O)N[C@@H](CCCNC(=N)N)C(=O)N[C@@H](CCCNC(=N)N)C(N)=O [Indolicidin, reference compound]	–	>32	No	–	CC50 (Cytotoxicity assay; Table 2, read-out: HEK293 Toxicity): > 32 µg/mL; C. neoformans MIC ([1]; ATCC 208821, concentration that inhibits 99% fungal growth, peptide alone): >32 µg/mL; C. albicans MIC (C. albicans [ATCC 90028]; ATCC 90028, concentration that inhibits 99% fungal growth, peptide alone): >32 µg/mL
